Where a name gives a salt, the structure may show the parent alone.
Tests used:
[1] = target: activated human C1 (Homo sapiens, UniProt P09871); assay: Test Code 026 (C1 inhibitor); assay type: biochemical; conditions: serial twofold dilution assay; higher well number indicates higher activity
Experimental: (§1) An active inhibitor protects C2 from C1 and C4; (ii) Test Code 035 (C3-C9 inhibitor)--This test determines the ability of the late components of human complement (C3-C9) to lyse EAC 142 in the presence of appropriate dilutions of the test compound. An active inhibitor protects EAC 142 from lysis by human C3-C9; (iii) Cap 50 Test--Here, appropriate amounts of the test compound are added to a pool of guinea pig or human serum in vitro, after which the undiluted serum capillary tube assay of U.S. Pat. No. 3,876,376 is run. The concentration of compound inhibiting 50% is reported; and (iv) Guinea Pig Intraperitoneal Test (GPIP)--Guinea pigs weighing about 300 g are dosed intraperitoneally (i.p.) with 200 mg/kg of the test compound dissolved in saline and adjusted to pH 7-8. Approximately 0.4 ml blood samples, taken by orbital sinus puncture 2 hours and 6 hours after injections, are collected directly into centrifuge tubes; 5 ml blood samples, taken by decapitation 24 hours after injection, are collected directly into beakers. The samples are allowed to clot, centrifuged, and the resultant sera are assayed for complement activity using the capillary complement assay. Percent inhibition is calculated by comparison with simultaneous controls. The results of the GPIP appear in Table I together with results of Test Code 026, 035 and Cap 50.

[2] = system: late components of human complement (C3-C9); assay: Test Code 035 (C3-C9 inhibitor), lysis of EAC 142; assay type: biochemical; conditions: serial twofold dilution assay; higher well number indicates higher activity
Experimental: as §1

[3] = system: human serum complement; conditions: both in vitro and in vivo; cited from earlier work

Row | C1 026 Wells [1] | Molecule | C-Late 035 Wells [2] | anticomplementary activity, judged by reduction in total hemolytic complement activity [3]
1 | 12 Wells | O=S(=O)(O)OC[C@H]1O[C@@H](Sc2cccc(S[C@@H]3O[C@H](COS(=O)(=O)O)[C@@H](O[C@H]4O[C@H](COS(=O)(=O)O)[C@@H](OS(=O)(=O)O)[C@H](OS(=O)(=O)O)[C@H]4OS(=O)(=O)O)[C@H](OS(=O)(=O)O)[C@H]3OS(=O)(=O)O)c2)[C@H](OS(=O)(=O)O)[C@@H](OS(=O)(=O)O)[C@@H]1O[C@H]1O[C@H](COS(=O)(=O)O)[C@@H](OS(=O)(=O)O)[C@H](OS(=O)(=O)O)[C@H]1OS(=O)(=O)O [1,3-Bis-[4-O-α-D-glucopyranosyl-β-D-glucopyranosyl-1-thio]-phenylene, tetradecakis(H-sulfate),tetradecasodium salt] | 0.9 Wells | –
2 | 13 Wells | O=S(=O)(O)OC[C@H]1O[C@@H](Sc2ccc(-c3ccc(S[C@@H]4O[C@H](COS(=O)(=O)O)[C@@H](O[C@H]5O[C@H](COS(=O)(=O)O)[C@@H](OS(=O)(=O)O)[C@H](OS(=O)(=O)O)[C@H]5OS(=O)(=O)O)[C@H](OS(=O)(=O)O)[C@H]4OS(=O)(=O)O)cc3)cc2)[C@H](OS(=O)(=O)O)[C@@H](OS(=O)(=O)O)[C@@H]1O[C@H]1O[C@H](COS(=O)(=O)O)[C@@H](OS(=O)(=O)O)[C@H](OS(=O)(=O)O)[C@H]1OS(=O)(=O)O [4,4'-Bis-[4-O-α-D-glucopyranosyl-β-D-glucopyranosyl-1-thio]-1,1'-biphenylene, tetradecakis(H-sulfate), tetradecasodium salt] | 2 Wells | –
3 | – | pentosanpolysulfoester | – | anticomplementary activity
